Experimental data: PubChem BioAssay (NCI)
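1) Cells in 96-well plates. 2) Compound, 48 h, 5 concentrations. 3) Linear interpolation between surrounding doses. 4) Unreached endpoint = highest concentration. TGI is the concentration that stops growth completely.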

What was measured:
Assay in all cases: DTP human tumour cell line panel, 48 h
MALME-3M melanoma = system: MALME-3M melanoma
HOP-62 NSCLC = system: HOP-62 NSCLC
SF-295 CNS = system: SF-295 CNS
LOX IMVI melanoma = system: LOX IMVI melanoma
OVCAR-4 ovarian = system: OVCAR-4 ovarian
NCI/ADR-RES ovarian = system: NCI/ADR-RES ovarian
SNB-75 CNS = system: SNB-75 CNS
NCI-H23 lung = system: NCI-H23 lung
HCC-2998 colon = system: HCC-2998 colon
SNB-19 CNS = system: SNB-19 CNS
HT29 colon = system: HT29 colon
COLO 205 colon = system: COLO 205 colon
MOLT-4 leukemia = system: MOLT-4 leukemia
A498 renal = system: A498 renal
UACC-257 melanoma = system: UACC-257 melanoma
MDA-MB-435 = system: MDA-MB-435
M14 melanoma = system: M14 melanoma
DU-145 prostate = system: DU-145 prostate
MDA-N = system: MDA-N
SR leukemia = system: SR leukemia

| Compound | TGI (MALME-3M melanoma) [µM] | TGI (HOP-62 NSCLC) [µM] | TGI (SF-295 CNS) [µM] | TGI (LOX IMVI melanoma) [µM] | TGI (OVCAR-4 ovarian) [µM] | TGI (NCI/ADR-RES ovarian) [µM] | TGI (SNB-75 CNS) [µM] | TGI (NCI-H23 lung) [µM] | TGI (HCC-2998 colon) [µM] | TGI (SNB-19 CNS) [µM] | TGI (HT29 colon) [µM] | TGI (COLO 205 colon) [µM] | TGI (MOLT-4 leukemia) [µM] | TGI (A498 renal) [µM] | TGI (UACC-257 melanoma) [µM] | TGI (MDA-MB-435) [µM] | TGI (M14 melanoma) [µM] | TGI (DU-145 prostate) [µM] | TGI (MDA-N) [µM] | TGI (SR leukemia) [µM] |
| --- | --- | --- | --- | --- | --- | --- | --- | --- | --- | --- | --- | --- | --- | --- | --- | --- | --- | --- | --- | --- |
| O=C(CCN1CCOCC1)C(=Cc1ccccc1)C(=O)CCN1CCOCC1 | 4.64 | 37.5 | 29.1 | 4.29 | 19.9 | 13.9 | 29.7 | 7.92 | 26.9 | 28.3 | 8.35 | 6.97 | 3.09 | 31.4 | 3.5 |  |  |  |  |  |
| Cc1ccc(S(=O)(=O)NCCCSCCSCCCN)cc1 |  |  | > 100 | > 100 | > 100 | > 100 | > 100 | > 100 | > 100 | > 100 | > 100 | > 100 | > 100 | > 100 | > 100 | > 100 | > 100 | > 100 | > 100 | > 100 |
| COC(=O)C1=C(C)N2CCOC2CC1c1ccccc1 (stereo not drawn) |  | > 100 | > 100 |  | > 100 |  | > 100 | > 100 | > 100 | > 100 | > 100 | > 100 | > 100 |  | > 100 |  | > 100 |  |  | > 100 |
| CN(C)CCN(C(=Nc1ccccc1)N1CCCC1)c1ccccc1 | > 100 | > 100 | > 100 | > 100 | > 100 | > 100 | > 100 | > 100 |  | > 100 | 92.4 | > 100 | > 100 |  | > 100 | > 100 | > 100 | > 100 | 86.6 | > 100 |
| CC(=O)NNc1nc(C)c(C(=O)NNC(=O)C(=O)Nc2c(C)cccc2C(C)(C)C)s1 |  | > 100 | > 100 | > 100 | > 100 |  | > 100 | > 100 | > 100 | > 100 | > 100 | > 100 | > 100 | > 100 | > 100 |  | > 100 |  |  | > 100 |
| O=C(N/N=C\C(F)(F)F)c1ccncc1 | > 100 | > 100 | > 100 | > 100 | > 100 | > 100 | > 100 | 50.6 | > 100 | > 100 | > 100 | > 100 | > 100 | > 100 | > 100 | > 100 | > 100 | > 100 |  | > 100 |
| CCN(CC)CCN(C(=O)c1ccc(F)cc1)c1ccccc1N | > 10 | > 10 | > 10 | > 10 | > 10 | > 10 | > 10 | > 10 | > 10 | > 10 | > 10 | > 10 | > 10 | > 10 |  | > 10 | > 10 | > 10 | > 10 | > 10 |
| COc1cc2oc(=O)ccc2cc1CC=C(C)C | > 100 | > 100 | > 100 | > 100 | > 100 | 79.3 | > 100 | > 100 | > 100 | > 100 | 77.7 | > 100 | > 100 | > 100 | > 100 | > 100 |  | > 100 | > 100 | 57.4 |
| COc1cc(C(=O)Nc2cc(C(N)=O)cc(OC)c2OC)cc(NC(=O)/C=C/c2ccccc2)c1OC | 64 |  | > 100 |  | > 100 | > 100 |  | > 100 |  | > 100 | > 100 | > 100 | > 100 |  | > 100 | > 100 |  | > 100 | > 100 | > 100 |
| Cc1ccc(S(=O)(=O)NNC2Oc3cc4c(cc3C(c3ccccc3O)C2C)OCO4)cc1 (stereo not drawn) | 25.9 | 29.6 | 24.4 | 32.8 |  |  | 23.3 | 33 | 32.6 | 25.6 | 27.6 | 29.5 | 42.7 | 30.7 | 23.3 | 26.8 | 26.2 | 29.2 | 27 | 33.4 |
